Each structure is given as a SMILES string.

In one assay the target is T1, human APJ receptor (Homo sapiens, UniProt P35414).
T1 construct: expressed in transfected cells
T1 sequence (P35414 1-380): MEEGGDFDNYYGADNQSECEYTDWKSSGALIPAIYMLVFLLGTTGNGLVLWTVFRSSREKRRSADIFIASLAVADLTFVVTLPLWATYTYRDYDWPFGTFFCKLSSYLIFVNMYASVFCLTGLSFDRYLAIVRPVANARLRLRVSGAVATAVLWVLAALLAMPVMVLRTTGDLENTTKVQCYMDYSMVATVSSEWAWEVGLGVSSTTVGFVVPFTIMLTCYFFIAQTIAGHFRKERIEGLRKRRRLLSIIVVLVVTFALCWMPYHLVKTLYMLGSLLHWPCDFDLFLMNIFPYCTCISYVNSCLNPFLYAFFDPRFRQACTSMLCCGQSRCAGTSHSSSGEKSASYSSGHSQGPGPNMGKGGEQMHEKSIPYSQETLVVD
Put plainly: Intracellular cAMP accumulation assay (APJ hcAMP, HTRF). It counts as cell-based. The following applies: Table 1; HEK293 cells stably expressing human APJ, forskolin-stimulated cAMP; read-out: APJ cAMP EC50. The method, boiled down:
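Inhibition of forskolin (2 μM)-stimulated cAMP, with […], was measured after 30 min compound exposure at room temperature in stably transfected HEK293 cells. HTRF ratios were converted to cAMP via standard curve, and EC50 values came from variable-slope sigmoidal concentration-response fitting.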
A general note: Changes in cAMP serve as a functional read-out for many G protein-coupled receptors.
For `CCCCc1nc(O)c(C(=O)N2CCN(c3ccccn3)CC2)c(O)c1-c1c(OC)cccc1OC` [Example 59], the EC50 (as a rule, the midpoint of the concentration-response curve) fell in the range of 10 to 100 nM.

As to `CCCCc1nc(O)c(C(=O)N2CCN(Cc3cccc(F)c3)CC2)c(O)c1-c1c(OC)cccc1OC` [Example 45, 6-butyl-5-(2,6-dimethoxyphenyl)-3-{4-[(3-fluorophenyl)methyl]piperazine-1-carbonyl}pyridine-2,4-diol], the concentration for a half-maximal effect (EC50) lay in the range of 0.01 to 10 nM.

Regarding `CCCCc1nc(O)c(C(=O)N2CCCN(c3nnnn3-c3ccccc3)CC2)c(O)c1-c1c(OC)cccc1OC` [Example 53, 6-butyl-5-(2,6-dimethoxyphenyl)-3-[4-(1-phenyl-1H-1,2,3,4-tetrazol-5-yl)-1,4-diazepane-1-carbonyl]pyridine-2,4-diol], the EC50 lay within 10 to 100 nM.

For the molecule `CCCCc1nc(O)c(C(=O)N2CCN(C3CCCCC3)CC2)c(O)c1-c1c(OC)cccc1OC` [Example 63, 6-butyl-3-(4-cyclohexylpiperazine-1-carbonyl)-5-(2,6-dimethoxyphenyl)pyridine-2,4-diol], the concentration for a half-maximal effect (EC50) was in the range of 10 to 100 nM.

Consider `CCCCc1nc(O)c(C(=O)N(C)CCCCc2ccccc2)c(O)c1-c1c(OC)cccc1OC` [Example 2, 6-butyl-5-(2,6-dimethoxyphenyl)-2,4-dihydroxy-N-methyl-N-(4-phenylbutyl)pyridine-3-carboxamide], for which the EC50 was 100 to 300 nM.

Consider `CCCCc1nc(O)c(C(=O)N2CCC(O)(c3ccc(Cl)cc3)CC2)c(O)c1-c1c(OC)cccc1OC` [Example 47, 6-butyl-3-[4-(4-chlorophenyl)-4-hydroxypiperidine-1-carbonyl]-5-(2,6-dimethoxyphenyl)pyridine-2,4-diol], for which the EC50 was in the range of 10 to 100 nM.

Take `CCCCc1nc(O)c(C(=O)N2CCC(O)(c3cccnc3)CC2)c(O)c1-c1c(OC)cccc1OC` [Example 4, 6-butyl-5-(2,6-dimethoxyphenyl)-3-[4-hydroxy-4-(pyridin-3-yl)piperidine-1-carbonyl]pyridine-2,4-diol]: the EC50 fell in the range of 100 to 300 nM.

Take `CCCCc1nc(O)c(C(=O)N2CCN(c3ccc(NC(=O)OC)cc3)CC2)c(O)c1-c1c(OC)cccc1OC` [Example 10, methyl N-(4-{4-[6-butyl-5-(2,6-dimethoxyphenyl)-2,4-dihydroxypyridine-3-carbonyl]piperazin-1-yl}phenyl)carbamate]: the EC50 fell in the range of 10 to 100 nM.

For `CCCCc1nc(O)c(C(=O)N2CCC(O)(c3ccccc3)CC2)c(O)c1-c1c(OC)cccc1OC` [Example 46, 6-butyl-5-(2,6-dimethoxyphenyl)-3-(4-hydroxy-4-phenylpiperidine-1-carbonyl)pyridine-2,4-diol], the 50% effective concentration (EC50) is 10 to 100 nM.

Regarding `CCCCc1nc(O)c(C(=O)N2CCC(c3ccc(C(N)=O)cc3)CC2)c(O)c1-c1c(OC)cccc1OC` [Example 24, 4-{1-[6-butyl-5-(2,6-dimethoxyphenyl)-2,4-dihydroxypyridine-3-carbonyl]piperidin-4-yl}benzamide], the concentration for a half-maximal effect (EC50) was 10 to 100 nM.

Turning to `CCCCc1nc(O)c(C(=O)N2CCN(c3ncccc3C(F)(F)F)CC2)c(O)c1-c1c(OC)cccc1OC` [Example 11, 6-butyl-5-(2,6-dimethoxyphenyl)-3-{4-[3-(trifluoromethyl)pyridin-2-yl]piperazine-1-carbonyl}pyridine-2,4-diol], the EC50 lay in the range of 10 to 100 nM.

The same assay, now with this note: Table 2; HEK293 cells stably expressing human APJ, forskolin-stimulated cAMP; read-out: APJ cAMP EC50.
Regarding `CCCCc1nc(O)c(C(=O)N2CCC(c3cccc(Cl)c3)C2)c(O)c1-c1c(OC)cccc1OC` (single isomer, unassigned) [Example 38, 6-butyl-3-[3-(3-chlorophenyl)pyrrolidine-1-carbonyl]-5-(2,6-dimethoxyphenyl)pyridine-2,4-diol], the EC50 was in the range of 0.01 to 10 nM.

With `CCCCc1nc(O)c(C(=O)N2CCCC2c2ccccn2)c(O)c1-c1c(OC)cccc1OC` (racemic) [Example 8, 6-butyl-5-(2,6-dimethoxyphenyl)-3-[2-(pyridin-2-yl)pyrrolidine-1-carbonyl]pyridine-2,4-diol], the concentration for a half-maximal effect (EC50) is 0.01 to 10 nM.

Still in this assay, the particulars now being: Table 3; HEK293 cells stably expressing human APJ, forskolin-stimulated cAMP; read-out: APJ cAMP EC50.
In the case of `CCCCc1nc(O)c(C(=O)N2CCC(c3ncc(F)cc3F)C2)c(O)c1-c1c(OC)cccc1OC` (centres unmarked) [Example 83, 6-butyl-3-[3-(3,5-difluoropyridin-2-yl)pyrrolidine-1-carbonyl]-5-(2,6-dimethoxyphenyl)pyridine-2,4-diol], the half-maximal effective concentration (EC50) was in the range of 0.01 to 10 nM.

As for `COc1cccc(OC)c1-c1c(-c2ccc(F)cc2)nc(O)c(C(=O)N2CCC(c3ncc(F)cc3F)C2)c1O` (centres unmarked) [Example 87, (3-(3,5-difluoropyridin-2-yl)pyrrolidin-1-yl)(5-(2,6-dimethoxyphenyl)-6-(4-fluorophenyl)-2,4-dihydroxypyridin-3-yl)methanone], the EC50 is 0.01 to 10 nM.

For `CCCCc1nc(O)c(C(=O)N2CCC(c3ncc(F)cc3F)C2)c(O)c1-c1c(OC)cccc1OC` (centres unmarked) [Example 82, 6-butyl-3-[3-(3,5-difluoropyridin-2-yl)pyrrolidine-1-carbonyl]-5-(2,6-dimethoxyphenyl)pyridine-2,4-diol], the concentration giving a half-maximal response (EC50) lay within 0.01 to 10 nM.

As to `CCOCc1nc(O)c(C(=O)N2CCC(c3ncc(F)cc3F)C2)c(O)c1-c1c(OC)cccc1OC` (centres unmarked) [Example 84, 3-[3-(3,5-difluoropyridin-2-yl)pyrrolidine-1-carbonyl]-5-(2,6-dimethoxyphenyl)-6-(ethoxymethyl)pyridine-2,4-diol], the EC50 was in the range of 0.01 to 10 nM.

With `COc1cccc(OC)c1-c1c(-c2ccc(F)cc2)nc(O)c(C(=O)N2CCC(c3ccccc3F)C2)c1O` (centres unmarked) [Example 86, (5-(2,6-dimethoxyphenyl)-6-(4-fluorophenyl)-2,4-dihydroxypyridin-3-yl)(3-(2-fluorophenyl)pyrrolidin-1-yl)methanone], the concentration for a half-maximal effect (EC50) lay within 0.01 to 10 nM.

The same assay, now with this note: Table 4; HEK293 cells stably expressing human APJ, forskolin-stimulated cAMP; read-out: Human cAMP EC50.
As to `CCOCc1nc(O)c(C(=O)N2CCN(Cc3cccc(F)c3F)CC2)c(O)c1-c1c(OC)cccc1OC` [Example 114, 3-{4-[(2,3-difluorophenyl)methyl]piperazine-1-carbonyl}-5-(2,6-dimethoxyphenyl)-6-(ethoxymethyl)pyridine-2,4-diol], the EC50 fell in the range of 0.01 to 10 nM.

For the molecule `CCCCc1nc(O)c(C(=O)N2CC[C@H](c3ccccc3)C2)c(O)c1-c1cc(OC)ccc1OC` [Example 97, 6-butyl-5-(2,5-dimethoxyphenyl)-3-[(3R)-3-phenylpyrrolidine-1-carbonyl]pyridine-2,4-diol], the half-maximal effective concentration (EC50) lay in the range of 0.01 to 10 nM.

Take `COCCc1nc(O)c(C(=O)N2CCN(Cc3cccc(F)c3)CC2)c(O)c1-c1c(OC)cccc1OC` [Example 88, 5-(2,6-dimethoxyphenyl)-3-{4-[(3-fluorophenyl)methyl]piperazine-1-carbonyl}-6-(2-methoxyethyl)pyridine-2,4-diol]: the EC50 lay in the range of 100 to 300 nM.

Take `CCCCc1nc(O)c(C(=O)N2CCN(C(=O)c3cccc(Cl)c3Cl)CC2)c(O)c1-c1c(OC)cccc1OC` [Example 153, 6-butyl-3-[4-(2,3-dichlorobenzoyl)piperazine-1-carbonyl]-5-(2,6-dimethoxyphenyl)pyridine-2,4-diol]: the 50% effective concentration (EC50) fell in the range of 0.01 to 10 nM.

With `CCCCc1nc(O)c(C(=O)N2CCN(Cc3cccc(Cl)n3)CC2)c(O)c1-c1c(OC)cccc1OC` [Example 123, 6-butyl-3-{4-[(6-chloropyridin-2-yl)methyl]piperazine-1-carbonyl}-5-(2,6-dimethoxyphenyl)pyridine-2,4-diol], the EC50 lay in the range of 0.01 to 10 nM.

For `CCCCc1nc(O)c(C(=O)N2CCC(Cc3ccccc3C)CC2)c(O)c1-c1c(OC)cccc1OC` [Example 106, 6-butyl-5-(2,6-dimethoxyphenyl)-3-{4-[(2-methylphenyl)methyl]piperidine-1-carbonyl}pyridine-2,4-diol], the EC50 is 0.01 to 10 nM.

`CCCCc1nc(O)c(C(=O)N2CCN(Cc3cccc(F)c3F)CC2)c(O)c1-c1cc(OC)ccc1OC` [Example 110, 6-butyl-3-{4-[(2,3-difluorophenyl)methyl]piperazine-1-carbonyl}-5-(2,5-dimethoxyphenyl)pyridine-2,4-diol]: the EC50 lay within 0.01 to 10 nM.

Consider `CCCCc1nc(O)c(C(=O)N2CCN(Cc3ccc(Cl)cc3Cl)CC2)c(O)c1-c1c(OC)cccc1OC` [Example 93, 6-butyl-3-{4-[(2,4-dichlorophenyl)methyl]piperazine-1-carbonyl}-5-(2,6-dimethoxyphenyl)pyridine-2,4-diol], for which the EC50 is 0.01 to 10 nM.

Still in this assay, the particulars now being: Table 5; HEK293 cells stably expressing human APJ, forskolin-stimulated cAMP; read-out: Human cAMP EC50.
As for `CCOCc1nc(O)c(C(=O)N2CCC(c3cccc(F)c3)C2)c(O)c1-c1c(OC)cccc1OC` (centres unmarked) [Example 124, 5-(2,6-dimethoxyphenyl)-6-(ethoxymethyl)-3-[3-(3-fluorophenyl)pyrrolidine-1-carbonyl]pyridine-2,4-diol], the EC50 is 0.01 to 10 nM.

The same assay, now with this note: Table 7; HEK293 cells stably expressing human APJ, forskolin-stimulated cAMP; read-out: Human cAMP EC50.
`CCCCc1nc(O)c(C(=O)N2CCC(c3ncc(F)cc3F)C2)c(O)c1-c1cccc(CO)c1` (centres unmarked) [Example 144, 6-butyl-3-[3-(3,5-difluoropyridin-2-yl)pyrrolidine-1-carbonyl]-5-[3-(hydroxymethyl)phenyl]pyridine-2,4-diol]: the half-maximal effective concentration (EC50) lay in the range of 0.01 to 10 nM.

Turning to `CCCCc1nc(O)c(C(=O)N2CCN(Cc3cccc(F)c3F)CC2)c(O)c1-c1cccc(CC#N)c1` [Example 139, 2-[3-(2-butyl-5-{4-[(2,3-difluorophenyl)methyl]piperazine-1-carbonyl}-4,6-dihydroxypyridin-3-yl)phenyl]acetonitrile], the concentration giving a half-maximal response (EC50) was in the range of 0.01 to 10 nM.

Values taken from US10392347B2, “2,4-dihydroxy-nicotinamides as APJ agonists” (BRISTOL-MYERS SQUIBB COMPANY, priority 2015, dated 2019).
